In patent US6846921B2, “Chimeric antisense oligonucleotides and cell transfecting formulations thereof” (Chiron Corporation, priority 1999, dated 2005):
{5'-OMe-dT} = O-methyl thymidine blocking nucleotide (W), phosphodiester-linked; {3'-3'N} = to-3' linked nucleotide blocking group (Z), phosphodiester-linked; d = 2'-deoxy (DNA); m = 2'-O-methyl

Legend:
[1] = system: Lovo colon cancer cells; assay: 4 day cell proliferation assay after transfection, Lovo; type: cell-based; details: 4 day assay, 50-300 nM reverse control PDK1 oligo, compared with Lipitoids 1 and 2
Experimental: (§1) (Again, reverse control PDK1 chimeric oligonucleotides, expected to be non-active, were used.). […] This effect is not limited to this cell type, and was also observed in proliferation assays of Km12L4 colon cancer cells (FIG. 6) and Colo320DM colon cancer cells (FIG. 7).
(§2) Cells were seeded into 96 well plates at a density of 5000 cells per well. For a 4 day proliferation assay, 5 independent 96 well plates were prepared, one for each day. After overnight incubation, cells were transfected using the procedure described above. On each day of the proliferation assay, all medium was removed from one plate and frozen at −70° C. On day four, all plates were developed with the Quantos™ assay kit (Stratagene, La Jolla, Calif.) which determines the amount of DNA, and thus the number of cells, in each well.

[2] = system: Colo320DM colon cancer cells; assay: Cell proliferation assay after transfection, Colo320DM; type: cell-based; details: compared with Lipitoids 1 and 2
Experimental: as §1, §2

[3] = system: CK1E mRNA; assay: CK1E mRNA knockout after transfection of chimeric antisense oligonucleotide; type: cell-based, human; details: HT1080 cells, Lipitoid 1 for transfection, incubated 24 hours, approximate level
Experimental: (§3) With the exception of the mTyr oligo (SEQ ID NO: 17-18), which was transfected into B16 melanoma cells, all oligos shown in Table 1 were transfected into HT1080 cells, using “Lipitoid 1” (see below) for transfection, and incubated for 24 hours. The table gives the approximate level of mRNA knockout observed in each case.
(§4) For each transfection mixture, a carrier molecule, preferably a lipitoid or cholesteroid, was prepared to a working concentration of 0.5 mM in water, sonicated to yield a uniform solution, and filtered through a 0.45 μm PVDF membrane. The antisense oligonucleotide was prepared to a working concentration of 100 μM in sterile Millipore water. […]
(§5) The level of target mRNA was quantitated using the Roche LightCycler™ real-time PCR machine. […]
(§6) An amplification mixture was prepared by mixing in the following order: 1×PCR buffer II, 3 mM MgCl2, 140 μM each dNTP, 0.175 pmol each oligo, 1:50,000 dil of SYBR® Green, 0.25 mg/ml BSA, 1 unit Taq polymerase, and H2O to 20 μl. (PCR buffer II is available in 10×concentration from Perkin-Elmer (Norwalk, Conn.). In 1×concentration it contains 10 mM Tris pH 8.3 and 50 mM KCl. SYBR® Green (Molecular Probes, Eugene, Oreg.) is a dye which fluoresces when bound to double stranded DNA. As double stranded PCR product is produced during amplification, the fluorescence from SYBR® Green increases.) […]

[4] = system: ILK mRNA; assay: ILK mRNA knockout after transfection of chimeric antisense oligonucleotide; type: cell-based, human; details: HT1080 cells, Lipitoid 1 for transfection, incubated 24 hours, approximate level
Experimental: as §3, §4, §5, §6

[5] = system: KRAS mRNA; assay: KRAS mRNA knockout after transfection of chimeric antisense oligonucleotide; type: cell-based, human; details: HT1080 cells, Lipitoid 1 for transfection, incubated 24 hours, approximate level
Experimental: as §3, §4, §5, §6

[6] = system: AKT1 mRNA; assay: AKT1 mRNA knockout in colon cancer cell line (Lovo) with different carriers; type: cell-based; details: Lovo cells; delivery of chimeric anti-AKT1 oligo
Experimental: For each transfection mixture, a carrier molecule, preferably a lipitoid or cholesteroid, was prepared to a working concentration of 0.5 mM in water, sonicated to yield a uniform solution, and filtered through a 0.45 μm PVDF membrane. The antisense oligonucleotide was prepared to a working concentration of 100 μM in sterile Millipore water.
The oligonucleotide was diluted in OptiMEM™ (Gibco/BRL), in a microfuge tube, to 2 μM, or approximately 20 μg oligo/ml of OptiMEM™. In a separate microfuge tube, lipitoid or cholesteroid, typically in the amount of about 1.5-2 nmol lipitoid/μg antisense oligonucleotide, was diluted into the same volume of OptiMEMTm used to dilute the oligonucleotide. The diluted antisense oligonucleotide was immediately added to the diluted lipitoid and mixed by pipetting up and down.
Cells were plated on tissue culture dishes one day in advance of transfection, in growth media with serum, to yield a density at transfection of 60-90%. The oligonucleotide/lipitoid mixture was added to the cells, immediately after mixing, to a final concentration of 100-300 nM antisense oligonucleotide. Cells were incubated with the transfection mixture at 37° C., 5% CO2 for 4-24 hours. After incubation, the transfection mixture was removed and replaced with normal growth media with serum.
as §5

[7] = system: human fibrosarcoma (HT1080) cells; assay: Delivery of FITC-labeled chimeric oligonucleotides, fluorescence analysis; type: cell-based
Excerpt: One method of delivery involves the use of transfection agents known as “lipitoids” and “cholesteroids”, described, for example, in co-owned PCT publications WO 98/06437 and WO 99/08711 (Zuckermann et al.), based on U.S. Ser. Nos. 60/023,867, 60/054,743, and 09/132,808, which are hereby incorporated by reference. These lipid-cationic peptoid conjugates are shown in these references to be effective reagents for the delivery of plasmid DNA to cells in vitro. It is shown herein that such compounds efficiently deliver oligonucleotides into a variety of primary and tumor cell lines. The efficiency of delivery was assessed by fluorescence analysis of FITC-labeled oligonucleotides, or by monitoring mRNA levels after transfection of chimeric antisense oligonucleotides, as described further below.
The extent of delivery of FITC-labeled chimeric oligonucleotides into human fibrosarcoma (HT1080) cells was assessed via fluorescence analysis. (All oligonucleotides used in the subsequent studies were chimeric oligonucleotides as described for the studies represented in Table 1.) The sequence of the oligonucleotides was the reverse control of PDK1 (SEQ ID NO: 25, the reverse of SEQ ID NO: 23) so that the effect of the oligonucleotides on the cells would be minimal. The oligonucleotides were transfected via complexation with (a) a commercially available transfection agent, Effectene™, (b) the peptoid (NaeNmpeNmpe)3 (peptoid 1), (c) Lipitoid 1, in a 1:4 charge ratio of oligo to lipitoid, and (d) Lipitoid 1, in a 1:3 charge ratio.

[8] = system: E1AF mRNA; assay: E1AF mRNA knockout after transfection of chimeric antisense oligonucleotide; type: cell-based, human; details: HT1080 cells, Lipitoid 1 for transfection, incubated 24 hours, approximate level
Experimental: as §3, §4, §5, §6

[9] = system: IGFR1 mRNA; assay: IGFR1 mRNA knockout after transfection of chimeric antisense oligonucleotide; type: cell-based, human; details: HT1080 cells, Lipitoid 1 for transfection, incubated 24 hours, approximate level
Experimental: as §3, §4, §5, §6

[10] = system: CHK1 mRNA; assay: CHK1 mRNA knockout after transfection of chimeric antisense oligonucleotide; type: cell-based, human
Experimental: Antisense chimeric oligonucleotides based on the formula above, having sequences directed against AKT1 (SEQ ID NO: 1) or AKT2 (SEQ ID NO: 2), were prepared as described in Example 1. The oligonucleotides also included a 5′-terminal 5′-O-methyl thymidine, as indicated by the formula above. In these oligonucleotides, X^1 and X^2 were seven-base blocks of 2′-O-methyl PO RNA, Y is PS DNA, Z was a 3′-to-3′ linked nucleotide, and W was a 5′-O-methyl thymidine. Both Z and W were linked to the respective X blocks via phosphodiester linkages. […] FIGS. 5 and 6 show levels of endogenous AKT1 mRNA in colon cancer cells and HT1080 cells, respectively, transfected with anti-AKT1 chimeric oligonucleotides (SEQ ID NO: 1). […]
as §5, §6

[11] = system: AKT1 mRNA; assay: AKT1 mRNA knockout after transfection of chimeric antisense oligonucleotide; type: cell-based, human; details: HT1080 cells
Experimental: as §3
The same oligos were also delivered by commercial lipids (Effectene™) and peptoids ((NaeNmpeNmpe)3).
For each transfection mixture, a carrier molecule, preferably a lipitoid or cholesteroid, was prepared to a working concentration of 0.5 mM in water, sonicated to yield a uniform solution, and filtered through a 0.45 μm PVDF membrane. […]
as §5, §6

[12] = system: chk1 kinase; assay: chk1 kinase activity after antisense transfection; type: cell-based, human; details: hCHK1 antisense, transfected cells
[13] = system: G2 cell cycle checkpoint control; assay: chk1 function (G2 cell cycle checkpoint control) after antisense transfection; type: cell-based, human; details: hCHK1 antisense, transfected cells
[14] = oligo SEQ ID NO: 25, in comparison to Effectene

Q: “Chol-β-ala-(NaeNiaNia)3 [Cholesteroid 3]” was tested. Which “proliferation and viability following oligonucleotide transfection (FIG. 5)” value [1] did it give?
A: Its value is “significant increase in proliferation and viability”.

Q: And the “proliferation following oligonucleotide transfection (FIG. 7)” value [2]?
A: The value was “also observed”.

Q: For “6 (AGCGGCAGAAGTTGAGGTATGTTGA; antisense; sugars from the 5' end m7 d11 m7, 5' {5'-OMe-dT}, 3' {3'-3'N}, backbone and T or U not given here; 2'-OMe blocks are phosphodiester, DNA gap is phosphorothioate) [compound 6]”, which mRNA knockout [3] is on record?
A: The mRNA knockout was >80%.

Q: With “11 (GTGTTTGTTCAGGGTTCCATTTCGG; antisense; sugars from the 5' end m7 d11 m7, 5' {5'-OMe-dT}, 3' {3'-3'N}, backbone and T or U not given here; 2'-OMe blocks are phosphodiester, DNA gap is phosphorothioate) [compound 11]” as the substance, how does the mRNA knockout [4] read?
A: Its mRNA knockout is >90%.

Q: “12 (GCATGTGGAAGGTAGGGAGGCAAGA; antisense; sugars from the 5' end m7 d11 m7, 5' {5'-OMe-dT}, 3' {3'-3'N}, backbone and T or U not given here; 2'-OMe blocks are phosphodiester, DNA gap is phosphorothioate) [compound 12]” was tested. Which mRNA knockout [5] did it give?
A: The mRNA knockout was >85%.

Q: “Chol-β-ala-(NaeNmpeNmpe)3 [Cholesteroid 1]” was tested. Which “AKT1 mRNA knockout by carrier (FIG. 4)” value [6] did it give?
A: The value was “better AKT1 mRNA knockout than delivery by Lipitoid 1 or Lipitoid 2”.

Q: Which results are given for DMPE(NaeNmpeNmpe)3 [Lipitoid 1]?
A: delivery effectiveness by charge ratio ([7]; 1:4 charge ratio of oligo to lipitoid versus 1:3): more effective than the 1:3 ratio; nuclear delivery of the oligonucleotide [7, 14]: higher degree of nuclear delivery; transfection efficiency of FITC-labeled oligonucleotide [7, 14]: significantly higher transfection efficiency

Q: For “7 (CCTGCCAGTATGAAGTTGGGAAGCG; antisense; sugars from the 5' end m7 d11 m7, 5' {5'-OMe-dT}, 3' {3'-3'N}, backbone and T or U not given here; 2'-OMe blocks are phosphodiester, DNA gap is phosphorothioate) [compound 7]”, which mRNA knockout [8] is on record?
A: The mRNA knockout was >90%.

Q: For “9 (TCTTCCTCACAGACCTTCGGGCAAG; antisense; sugars from the 5' end m7 d11 m7, 5' {5'-OMe-dT}, 3' {3'-3'N}, backbone and T or U not given here; 2'-OMe blocks are phosphodiester, DNA gap is phosphorothioate) [compound 9]”, which mRNA knockout [9] is on record?
A: Its mRNA knockout is > 80%.

Q: How did the mRNA knockout ([10]; CHK1, HT1080 cells, Lipitoid 1 for transfection, incubated 24 hours, approximate level) turn out when “3 (CCCAGAGCCGATGGTCCGATCATGT; antisense; sugars from the 5' end m7 d11 m7, 5' {5'-OMe-dT}, 3' {3'-3'N}, backbone and T or U not given here; 2'-OMe blocks are phosphodiester, DNA gap is phosphorothioate) [compound 3]” was run?
A: The mRNA knockout was >90%.

Q: How did the mRNA knockout ([11]; AKT1, Lipitoid 1 for transfection, incubated 24 hours, approximate level) turn out when “1 (CCATAGTGAGGTTGCATCTGGTGCC; antisense; sugars from the 5' end m7 d11 m7, 5' {5'-OMe-dT}, 3' {3'-3'N}, backbone and T or U not given here; 2'-OMe blocks are phosphodiester, DNA gap is phosphorothioate) [compound 1]” was run?
A: The mRNA knockout was >90%.

Q: With “CCATAGTGAGGTTGCATCTGGTGCC (chimeric modifications, further chemistry not given here) [SEQ ID NO: 1, chimeric antisense oligonucleotide directed against AKT1]” as the substance, how does the “reduction in endogenous AKT1 mRNA level (FIG. 3)” value ([11]; L1-transfected, versus control oligos and delivery by Effectene or peptoid (NaeNmpeNmpe)3) read?
A: Its value is “most pronounced reduction”.

Q: With “Chol-Ahx-(NaeNmpeNmpe)3 [Cholesteroid 2]” as the substance, how does the “proliferation and viability following oligonucleotide transfection (FIG. 5)” value [1] read?
A: The value was “significant increase in proliferation and viability”.

Q: And the “proliferation following oligonucleotide transfection (FIG. 7)” value [2]?
A: Its value is “also observed”.

Q: With “CCCAGAGCCGATGGTCCGATCATGT (sugars from the 5' end m7 d11 m7, 5' {5'-OMe-dT}, 3' {3'-3'N}, backbone and T or U not given here; 2'-OMe blocks are phosphodiester, DNA gap is phosphorothioate) [SEQ ID NO: 3, chimeric antisense oligonucleotide directed against hCHK1]” as the substance, how does the “degradation of endogenous mRNA” value ([10]; hCHK1 antisense, transfected cells) read?
A: Its value is “degradation of endogenous mRNA”.

Q: And the chk1 kinase activity [12]?
A: The chk1 kinase activity was “loss of chk1 kinase activity”.

Q: And the “chk1 function (G2 cell cycle checkpoint control)” value [13]?
A: The value was “loss of chk1 function”.
